Source: US5223513A, “Quinoline derivatives, their production and use” (Takeda Chemical Industries, Ltd., priority 1989, dated 1993)
pIC50: −log10 of the molar value.

Experiments:
[1] = biological target: T1, acyl-CoA : cholesterol acyltransferase (ACAT) (Rattus norvegicus, UniProt Q7TQM4); test: Acyl-CoA : Cholesterol Acyltransferase (ACAT) inhibitory activity; format: biochemical; settings: for inhibition at 1 µM: 10^-6 M of test compound, production of labeled cholesterol ester, read-out: ACAT Inhibition Rate (%); for pIC50: calculated by plotting inhibition rates obtained at plural concentrations, read-out: 50% inhibitory concentration (IC50)
T1 construct: mucosal microsome fraction of the small intestine; from tissue; host or cells: mucosal microsome fraction of rat small intestine
T1 sequence (Q7TQM4 1-524): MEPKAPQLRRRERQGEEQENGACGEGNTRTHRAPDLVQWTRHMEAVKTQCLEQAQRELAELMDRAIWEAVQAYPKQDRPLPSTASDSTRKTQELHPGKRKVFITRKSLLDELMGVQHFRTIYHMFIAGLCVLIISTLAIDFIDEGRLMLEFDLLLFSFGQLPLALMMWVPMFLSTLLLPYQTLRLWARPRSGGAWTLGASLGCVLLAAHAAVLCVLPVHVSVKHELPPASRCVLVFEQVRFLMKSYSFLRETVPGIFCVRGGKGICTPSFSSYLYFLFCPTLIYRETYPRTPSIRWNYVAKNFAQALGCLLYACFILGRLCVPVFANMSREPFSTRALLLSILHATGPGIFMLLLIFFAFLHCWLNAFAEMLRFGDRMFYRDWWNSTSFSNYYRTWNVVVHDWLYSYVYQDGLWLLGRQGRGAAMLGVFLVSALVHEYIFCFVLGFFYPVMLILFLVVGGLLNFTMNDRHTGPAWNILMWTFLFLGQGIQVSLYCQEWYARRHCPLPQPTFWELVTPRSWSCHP
Description: The enzyme ACAT was prepared by the method of Heider et al. described in Journal of Lipid Research, Vol. 24, page 1127 (1982), from the mucosal microsome fraction of the small intestine of male, 6-week old Sprague-Dawley rats which had been fasted for 20 hours.
ACAT activity was calculated by the method of Helgerud et al. described in Journal of Lipid Research, Vol. 22, page 271 (1981), namely, by measuring the amount of the labeled cholesterol ester produced from [1-^14 C] oleoyl-CoA and endogenous cholesterol. […]

[2] = Plasma Cholesterol Lowering Activity in Cholesterol Fed Rat; format: in vivo, rat (Sarague-Dawely); settings: 1% cholesterol diet containing 0.0003% of test compound for 7 days; Example 3 dose 0.27 ± 0.02, Example 24 dose 0.24 ± 0.03 mg/kg/day; mean ± standard deviation; *p < 0.05 (t test vs control group 195 ± 32)
Description: To 7-week old, male Sarague-Dawely rats which were grouped according to body weight was fed 1% cholesterol diet containing 0.5% of cholic acid, 5% of olive oil and 0.0003% of a test compound for 7 days. Blood was collected from the rats during 8:30-10:00 am at the fed state, and the plasma cholesterol level was measured enzymatically. The amount of test compound consumed by rats was calculated on the basis of the amount of the diet consumed by the rats.

SMILES	inhibition at 1 µM [1]	pIC50 [1]	Cholesterol in Serum [2]
Cn1c(=O)c(NC(=O)Nc2ccc(F)cc2F)c(-c2ccccc2Cl)c2cc(Cl)ccc21 [Example 1]	96.8%		
Cc1cccc(C(C)C)c1NC(=O)Nc1c(-c2ccccc2Cl)c2cc(Cl)ccc2n(C)c1=O [Example 2]	99.2%	7.80	
Cc1cc2c(-c3ccccc3Cl)c(NC(=O)Nc3ccc(F)cc3F)c(=O)n(C)c2cc1C [Example 3, N-[4-(2-chlorophenyl)-1,6,7-trimethyl-1,2-dihydro-2-oxo-3-quinolyl]-N'-(2,4-difluorophenyl)urea]	98.7%	8.19	129 ± 19 mg/dL
Cc1cc(C)c2c(c1)c(-c1ccccc1Cl)c(NC(=O)Nc1ccc(F)cc1F)c(=O)n2C [Example 4, N-[4-(2-chlorophenyl)-1,2-dihydro-1,6,8-trimethyl-2-oxo-3-quinolyl]-N'-(2,4-difluorophenyl)urea]	97.1%		
Cc1cc(C)c2c(c1)c(-c1ccccc1Cl)c(NC(=O)Nc1c(C)cccc1C(C)C)c(=O)n2C [Example 5, N-[4-(2-chlorophenyl)-1,2-dihydro-1,6,8-trimethyl-2-oxo-3-quinolyl]-N'-(2-isopropyl-6-methylphenyl)urea]	98.2%	7.74	
CCn1c(=O)c(NC(=O)Nc2ccc(F)cc2F)c(-c2ccccc2Cl)c2cc(C)cc(C)c21 [Example 6, N-[4-(2-chlorophenyl)-1-ethyl-1,2-dihydro-6,8-di-methyl-2-oxo-3-quinolyl]-N'-(2,4-difluorophenyl)urea]	97.9%		
Cn1c(=O)c(NC(=O)Nc2ccc(F)cc2F)c(-c2ccccc2)c2cc(Cl)ccc21 [Example 7, N-(6-chloro-1,2-dihydro-1-methyl-2-oxo-4-phenyl-3-quinolyl)-N'-(2,4-difluorophenyl)urea]	77.9%		
COc1nc2ccc(Cl)cc2c(-c2ccccc2Cl)c1NC(=O)Nc1ccc(F)cc1F [Example 9]	89.6%		
Cc1cc2c(-c3ccccc3C)c(NC(=O)Nc3ccc(F)cc3F)c(=O)n(C)c2cc1C [Example 10, N-(2,4-difluorophenyl)-N'-(1,2-dihydro-1,6,7-trimethyl-4-(2-methylphenyl)-2-oxo-3-quinolyl]urea]	97.6%	7.11	
COc1ccc(-c2c(NC(=O)Nc3ccc(F)cc3F)c(=O)n(C)c3ccc(C)cc23)cc1OC [Example 11, N-(2,4-difluorophenyl)-N'-[1,2-dihydro-4-(3,4-di-methoxyphenyl) -1,6-dimethyl-2-oxo-3-quinolyl]urea]	96.6%		
COc1nc2c(C)cc(C)cc2c(-c2ccccc2Cl)c1NC(=O)Nc1ccc(F)cc1F [Example 12, N-[4-(2-chlorophenyl)-2-methoxy-6,8-dimethyl-3-quinolyl]-N -(2,4-difluorophenyl)urea]	95.9%		
Cc1cc(C)c2nc(C)c(NC(=O)Nc3ccc(F)cc3F)c(-c3ccccc3Cl)c2c1 [Example 13, N-[4-(2-chlorophenyl)-2,6,8-trimethyl-3-quinolyl]-N'-(2,4-difluorophenyl)urea]	85.4%		
COc1cc(NC(=O)Nc2c(-c3ccccc3Cl)c3cc(C)c(C)cc3n(C)c2=O)cc(OC)c1OC(C)=O [Example 15, N-(4-acetoxy-3,5-di-methoxyphenyl) -N'-[4-(2-chlorophenyl)-1,2-dihydro-1,6,7-trimethyl-2-oxo-3-quinolyl]urea]	90.1%		
CCc1ccc2c(c1)c(-c1ccccc1Cl)c(NC(=O)Nc1ccc(F)cc1F)c(=O)n2C [Example 17, N-[4-(2-chlorophenyl)-1,2-dihydro-6-ethyl-1-methyl-2-oxo-3-quinolyl]-N'-(2,4-difluorophenyl)urea]	96.5%	7.60	
CCc1ccc2c(c1)c(-c1ccccc1Cl)c(NC(=O)Nc1c(C)cccc1C(C)C)c(=O)n2C [Example 18, N-[4-(2-chlorophenyl)-1,2-dihydro-6-ethyl-1-methyl-2-oxo-3-quinolyl]-N'-(2-isopropyl-6-methylphenyl)urea]	99.2%	7.92	
CC(C)c1ccc2c(c1)c(-c1ccccc1Cl)c(NC(=O)Nc1ccc(F)cc1F)c(=O)n2C [Example 19, N-[4-(2-chlorophenyl)-1,2-dihydro-6-isopropyl-1-methyl-2-oxo-3-quinolyl]-N'-(2,4-difluorophenyl)urea]	97.8%	7.43	
Cc1ccccc1-c1c(NC(=O)Nc2ccc(F)cc2F)c(=O)n(C)c2ccc(Cl)cc12 [Example 20, N-[6-chloro-1,2-dihydro-1-methyl-4-(2-methylphenyl)-2-oxo-3-quinolyl]-N'-(2,4-difluorophenyl)urea]	96.1%	7.46	
Cc1ccccc1-c1c(NC(=O)Nc2c(C)cccc2C(C)C)c(=O)n(C)c2ccc(Cl)cc12 [Example 21, N-[6-chloro-1,2-dihydro-1-methyl-4-(2-methylphenyl)-2-oxo-3-quinolyl]-N'-(2-isopropyl-6-methylphenyl)urea]	99.4%	7.77	
COc1ccc(-c2c(NC(=O)Nc3c(C)cccc3C(C)C)c(=O)n(C)c3ccc(C)cc23)cc1OC [Example 22, N-[1,2-dihydro-4-(3,4-dimethoxyphenyl)-1,6-dimethyl-3-quinolyn]-N'-(2-isopropyl-6-methylphenyl)urea]	99%	7.43	
COc1ccc(-c2c(NC(=O)Nc3c(C)cccc3C(C)C)c(=O)n(C)c3ccc(Cl)cc23)cc1OC [Example 23]	99%	7.39	
Cc1cc2c(-c3ccccc3C)c(NC(=O)Nc3ccc(F)cc3F)c(=O)n(C)c2cc1Cl [Example 24, N-[7-chloro-1,2-dihydro-4-(2-methylphenyl)-1,6-dimethyl-2-oxo-3-quinolyl]-N'-(2,4-difluorophenyl)urea]	99.2%	8.03	113 ± 41 mg/dL
